Test results from patent US10259815B2, “Gabaergic ligands and their uses” (UWM Research Foundation, Inc., priority 2015, dated 2019).

How the values were obtained:
GABAA/α2 = GABAA/α2 (Homo sapiens, UniProt P18507+P47869); details: as disclosed in Huang, et al., J. Med. Chem. 2000; cited from earlier work
GABAA/α3 = GABAA/α3 (Homo sapiens, UniProt P18507+P34903); details: as disclosed in Huang, et al., J. Med. Chem. 2000; cited from earlier work
GABAA/α1 receptors = GABAA/α1 receptors (Homo sapiens, UniProt P14867+P18507); details: as disclosed in Huang, et al., J. Med. Chem. 2000; cited from earlier work
GABAA/α5 receptors = GABAA/α5 receptors (Homo sapiens, UniProt P18507+P31644); details: as disclosed in Huang, et al., J. Med. Chem. 2000; cited from earlier work
Male Sprague-Dawley rats [1] = experiment: Inverted screen test (muscle relaxation); format: in vivo; details: for muscle relaxation / motor impairment in inverted screen: i.p. 30 minutes prior, diazepam 3, 10, 30 mg/kg, KRM-II-81 10, 30, 60 mg/kg, HZ-166 30 mg/kg
Experimental: (§1) Results were analyzed using ANOVA (Dunnett's test: *P<0.05).
The inverted screen test is used to measure whether or not a test compound induces muscle relaxation. When a test subject is placed on a wire screen which is then inverted, the reaction is to climb to the opposite side so they are no longer hanging upside down. If a compound promotes muscle relaxation, the test subjects will either fall off, or hang onto the screen without being able to climb to the opposite side.
Rats were placed onto the top of a wire screen, which was then inverted so that the rats were hanging upside down. […] Results were analyzed using ANOVA (Dunnett's test: *P<0.05).

Male CD-1 mice [2] = experiment: Maximal electroshock (MES)-induced convulsion protection; format: in vivo; details: i.p. 30 minutes prior to test
Experimental: Male CD-1 mice (n=10) were dosed i.p. 30 minutes prior to being tested. Results were analyzed using ANOVA (Dunnett's test versus vehicle: *P<0.05).
The maximal electroshock (MES) assay is designed to determine how well a test compound can prevent seizures induced by applying a voltage stimuli to a mouse.
Mice were subjected to electrical induced tonic seizures and examined for anticonvulsant effects 30 minutes after treatment. Mice were then given a 7 mA electroshock using a Wahlquist Model H for 0.2 seconds and observed for the presence or absence of seizure activity. Each mouse is tested only once and euthanized immediately following the test.

Male Sprague-Dawley rats [3] = experiment: scMET-induced seizure protection, rats; format: in vivo; details: pentylenetetrazole 35 mg/kg
Experimental: A 35 mg/kg subcutaneous dose of pentylenetetrazole was given and the percent outcome of seizure was recorded. Results were analyzed using ANOVA (Dunnett's test: *P<0.05).
Test subjects were given a test compound, followed by a 35 mg/kg dose of MET and observed for convulsions (FIG. 7).
as §1

Male Sprague-Dawley rats [4] = experiment: PTZ-induced seizure threshold; format: in vivo; details: test compound 3 to 60 mg/kg, diazepam 0.1 to 1 mg/kg i.p.
Experimental: as §1
After a pretreatment of test compound, MET was intravenously administered to a test subject until a convulsions were observed.
Each animal was used only once and was euthanized post testing. Results were analyzed using ANOVA (Dunnett's test: *P<0.05).

Male NIH Swiss mice = details: previously shown; cited from earlier work
Male CD-1 mice [5] = details: previously shown; cited from earlier work
[6] = Pharmacokinetics after 10 mg/kg P.O. dose, mice; format: in vivo; details: mouse, blood, po
Text: Although these are different species, the numbers can still be compared.

[7] = Liver microsomal stability, mouse; format: in vitro ADME; details: 37° C., 4 μM compound, 30 minutes
Experimental: (§2) In vitro metabolism studies were done in mouse, rat, human, and dogs cells (TABLE 2).
(§3) In vitro liver microsomal studies were completed to measure the stability of the compounds against degradation in various species' liver microsomes.
(§4) Compound was incubated in hepatic microsomes over a 30-minute incubation period at 37° C. Incubations both with and without NADPH (2 mM) were performed in a 96-well plate format. The reaction was initiated with the addition of substrate and was terminated by protein precipitation. All incubations were performed using a final substrate concentration of 4 μM in 50 mM sodium phosphate buffer, pH 7.4. The final organic solvent content was 0.5% acetonitrile and 0.02% DMSO. The amount of enzyme present was fixed at 1.11 mg/mL protein irrespective of the species of microsomes used. Samples were analyzed by LC/MS-MS to determine the percent loss in the NAPDH incubations relative to the NADPH free incubations.

Male Sprague-Dawley rats [8] = details: has been shown; cited from earlier work
[9] = Liver microsomal stability, rat; format: in vitro ADME; details: 37° C., 4 μM compound, 30 minutes
Experimental: as §2, §3, §4

[10] = Liver microsomal stability, dog; format: in vitro ADME; details: 37° C., 4 μM compound, 30 minutes
Experimental: as §2, §3, §4

Male Sprague-Dawley rats [11] = details: previously shown; species not stated; cited from earlier work
rhesus monkeys = details: previously shown; cited from earlier work
Sprague Dawley male rats = experiment: Mechanical hyperalgesia (von Frey) in CFA-induced inflammatory pain rat model; format: in vivo; details: cumulative i.p. dosing, 3 days after CFA
Experimental: Raw data (paw withdrawal threshold, expressed in g of von Frey filament) was converted to a maximal possible effect value according the following equation: % MPE=[(test threshold(g)−control threshold(g)/(pre-CFA threshold−control threshold)]×100.
Complete Freund's adjuvant (CFA) contains Mycobacterium butyricum, inducing inflammation and an increase in paw thickness. 0.1 mL of CFA was injected in the right hind paw of Sprague Dawley male rats under isoflurane anaesthesia.
Mechanical hyperalgesia. Mechanical hyperalgesia was measured 3 days after CFA treatment. Rats (n=6) were placed in elevated boxes with a mesh floor. Von Frey filaments (expressed in g) were applied perpendicularly to the hindpaws, starting with the lowest filament (1.4 g) then increased until hindpaw withdrawal was observed. After each measurement, rats received the next dose of drug (every 20 min) until the maximum threshold (26 g) was observed. For the antagonist study, rats were pretreated with the benzodiazepine site antagonist flumazenil (10 min) and then received the next dose of drug (every 20 min) until the pre-CFA threshold was observed.
Drugs. The following drugs were used: HZ166, KRM-II-18B, and KRM-II-81, and were dissolved in a mixture containing 20% Dimethyl sulfoxide (DMSO), 10% Emulphor-620 (Rhodia Inc.), and 70% of 0.9% saline. Flumazenil (purchased from Cayman Chemical Company, MI) was dissolved in a mixture containing 10% ethanol, 40% propylene glycol, and 50% sterile water. Midazolam (Akorn, Inc.) was dissolved in 0.9% saline. Doses were expressed as the weight of the drug in milligrams per kilogram of body weight and drugs were administered intraperitoneally.

[12] = Liver microsomal stability, human; format: in vitro ADME; details: 37° C., 4 μM compound, 30 minutes
Experimental: as §2, §3, §4

Sequence of GABAA/α5 receptors (P31644 32-462): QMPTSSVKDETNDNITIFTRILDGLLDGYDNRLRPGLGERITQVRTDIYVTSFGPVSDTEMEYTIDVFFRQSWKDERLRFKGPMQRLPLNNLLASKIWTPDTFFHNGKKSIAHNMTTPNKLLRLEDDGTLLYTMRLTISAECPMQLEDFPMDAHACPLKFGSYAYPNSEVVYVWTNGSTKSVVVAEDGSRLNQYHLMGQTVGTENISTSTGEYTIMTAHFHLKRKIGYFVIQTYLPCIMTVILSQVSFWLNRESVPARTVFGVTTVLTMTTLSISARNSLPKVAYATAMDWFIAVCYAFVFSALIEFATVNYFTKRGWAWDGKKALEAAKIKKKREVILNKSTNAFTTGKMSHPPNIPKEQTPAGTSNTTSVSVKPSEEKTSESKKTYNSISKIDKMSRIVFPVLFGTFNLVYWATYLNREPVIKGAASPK
Sequence of GABAA/α5 receptors (P28472 26-473 partner): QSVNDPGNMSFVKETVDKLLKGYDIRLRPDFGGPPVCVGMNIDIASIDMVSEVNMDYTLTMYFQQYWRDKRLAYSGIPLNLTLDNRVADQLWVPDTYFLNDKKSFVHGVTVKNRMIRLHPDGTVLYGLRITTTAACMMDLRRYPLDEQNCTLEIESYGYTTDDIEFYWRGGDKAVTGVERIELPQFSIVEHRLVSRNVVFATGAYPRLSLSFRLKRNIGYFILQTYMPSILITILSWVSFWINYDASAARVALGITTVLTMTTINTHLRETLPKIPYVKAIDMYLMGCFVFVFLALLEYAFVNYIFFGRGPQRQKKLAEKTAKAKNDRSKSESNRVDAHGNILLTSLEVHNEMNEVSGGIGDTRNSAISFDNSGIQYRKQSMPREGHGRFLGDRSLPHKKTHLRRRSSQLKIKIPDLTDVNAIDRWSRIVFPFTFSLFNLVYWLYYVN
Sequence of GABAA/α5 receptors (P18507 40-475): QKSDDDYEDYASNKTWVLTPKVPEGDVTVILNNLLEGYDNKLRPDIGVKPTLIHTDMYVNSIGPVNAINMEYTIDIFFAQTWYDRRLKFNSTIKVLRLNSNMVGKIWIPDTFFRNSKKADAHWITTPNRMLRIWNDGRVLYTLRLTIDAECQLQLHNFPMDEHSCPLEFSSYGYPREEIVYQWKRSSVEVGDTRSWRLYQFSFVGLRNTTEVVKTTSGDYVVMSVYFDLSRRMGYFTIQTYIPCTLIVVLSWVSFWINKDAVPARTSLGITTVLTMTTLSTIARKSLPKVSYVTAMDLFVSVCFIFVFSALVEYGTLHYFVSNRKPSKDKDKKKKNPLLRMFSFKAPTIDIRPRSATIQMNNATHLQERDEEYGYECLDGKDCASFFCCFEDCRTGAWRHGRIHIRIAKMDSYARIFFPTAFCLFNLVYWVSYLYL
Sequence of GABAA/α1 receptors (P14867 28-456): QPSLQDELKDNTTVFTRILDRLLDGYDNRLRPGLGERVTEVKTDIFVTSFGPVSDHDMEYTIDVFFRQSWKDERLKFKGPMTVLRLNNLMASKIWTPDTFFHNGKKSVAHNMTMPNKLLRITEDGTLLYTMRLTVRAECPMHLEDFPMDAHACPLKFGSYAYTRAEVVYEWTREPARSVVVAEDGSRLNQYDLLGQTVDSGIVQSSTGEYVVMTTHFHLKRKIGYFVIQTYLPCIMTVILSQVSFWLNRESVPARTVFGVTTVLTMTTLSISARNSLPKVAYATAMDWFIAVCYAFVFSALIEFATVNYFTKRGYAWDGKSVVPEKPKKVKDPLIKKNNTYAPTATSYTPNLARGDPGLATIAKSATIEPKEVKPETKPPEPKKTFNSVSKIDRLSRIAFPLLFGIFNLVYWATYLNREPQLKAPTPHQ
Sequence of GABAA/α1 receptors (P28472 26-473 partner): as the sequence (P28472 26-473 partner) above
Sequence of GABAA/α1 receptors (P18507 40-475): as the sequence (P18507 40-475) above
Sequence of GABAA/α3 (P34903 29-492): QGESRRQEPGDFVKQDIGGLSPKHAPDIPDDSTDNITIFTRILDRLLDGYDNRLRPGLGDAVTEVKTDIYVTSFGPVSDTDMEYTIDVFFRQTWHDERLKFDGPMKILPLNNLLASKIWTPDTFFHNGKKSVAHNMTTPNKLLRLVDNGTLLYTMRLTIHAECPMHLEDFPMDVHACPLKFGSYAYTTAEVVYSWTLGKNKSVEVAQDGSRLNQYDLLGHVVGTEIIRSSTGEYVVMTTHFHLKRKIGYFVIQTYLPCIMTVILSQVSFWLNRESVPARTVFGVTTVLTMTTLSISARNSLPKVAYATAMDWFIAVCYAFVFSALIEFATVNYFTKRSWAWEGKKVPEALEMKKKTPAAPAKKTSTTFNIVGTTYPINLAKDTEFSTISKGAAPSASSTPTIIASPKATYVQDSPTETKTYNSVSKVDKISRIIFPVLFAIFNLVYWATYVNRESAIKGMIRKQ
Sequence of GABAA/α3 (P28472 26-473 partner): as the sequence (P28472 26-473 partner) above
Sequence of GABAA/α3 (P18507 40-475): as the sequence (P18507 40-475) above
Sequence of GABAA/α2 (P47869 29-451): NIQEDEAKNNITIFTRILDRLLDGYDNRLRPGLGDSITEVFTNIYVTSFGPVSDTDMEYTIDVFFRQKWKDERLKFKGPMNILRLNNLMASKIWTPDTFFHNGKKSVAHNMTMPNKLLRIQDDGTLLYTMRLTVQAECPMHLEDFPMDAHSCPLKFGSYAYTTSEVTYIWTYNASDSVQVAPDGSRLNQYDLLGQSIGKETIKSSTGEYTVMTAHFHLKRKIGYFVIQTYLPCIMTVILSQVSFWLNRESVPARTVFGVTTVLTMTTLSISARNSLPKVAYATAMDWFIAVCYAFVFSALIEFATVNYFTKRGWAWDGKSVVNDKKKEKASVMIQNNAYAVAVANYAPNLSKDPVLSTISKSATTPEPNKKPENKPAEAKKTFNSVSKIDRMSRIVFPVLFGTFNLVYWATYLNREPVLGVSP
Sequence of GABAA/α2 (P28472 26-473 partner): as the sequence (P28472 26-473 partner) above
Sequence of GABAA/α2 (P18507 40-475): as the sequence (P18507 40-475) above

Q: Which Ki (GABAA/α2) does the source give for `C#Cc1ccc2c(c1)C(c1ccccc1)=NCC(=O)N2C` [QH-ii-066] here?
A: < 50 nM

Q: And the Ki (GABAA/α3)?
A: < 50 nM

Q: What about the Ki (GABAA/α1 receptors) of the same compound?
A: > 70 nM

Q: And the Ki (GABAA/α5 receptors)?
A: < 10 nM

Q: What does the source list for `CN1C(=O)CN=C(c2ccccc2)c2cc(Cl)ccc21` [diazepam, reference compound]?
A: muscle relaxation / motor impairment in inverted screen (Male Sprague-Dawley rats [1]): produced full motor impairment; protection against MES-induced seizures (Male CD-1 mice [2]): fully protected against seizure induction; dose achieving significant protection against scMET seizures (Male Sprague-Dawley rats [3]; i.p. 30 minutes prior): 10 mg/kg; effect on seizure threshold to PTZ (Male Sprague-Dawley rats [4]): significantly increased the seizure threshold to PTZ

Q: With `C#Cc1ccc2c(c1)C(c1ccccn1)=NCc1c(C(=O)OCC)ncn1-2` [HZ-166, Ethyl-8-ethynyl-6-(pyridin-2-yl)-4H-benzo[f]imidazo[1,5-a][1,4]diazepine-3-carboxylate] as the compound, how does the “doses with no ataxic complications” value (Male NIH Swiss mice) read?
A: over 100 mg/kg

Q: What about the “effectiveness in MES assay” value (Male CD-1 mice [5]) of the same compound?
A: effective in this assay

Q: What about the Tmax [6] of the same compound?
A: 5.58 h

Q: What about the Cmax ([6]; read-out: Cmax (highest concentration found in blood)) of the same compound?
A: 4.11 ng/mL

Q: What about the “muscle relaxation / motor impairment in inverted screen” value (Male Sprague-Dawley rats [1]) of the same compound?
A: Neither HZ-166 nor KRM-II-81 induced significant muscle relaxation

Q: What about the “dose at which signs of muscle relaxation began to appear” value (Male Sprague-Dawley rats [1]; i.p., inverted screen) of the same compound?
A: 30 mg/kg

Q: What about the “Mouse Liver microsome stability (reported in % remaining)” value [7] of the same compound?
A: 54 % remaining

Q: What about the “performance in von Frey filament assay” value (Male Sprague-Dawley rats [8]) of the same compound?
A: perform well in this assay

Q: What about the “Rat Liver microsome stability (reported in % remaining)” value [9] of the same compound?
A: 50 % remaining

Q: And the “protection against MES-induced seizures” value (Male CD-1 mice [2])?
A: did not

Q: What about the “Dog Liver microsome stability (reported in % remaining)” value [10] of the same compound?
A: 97 % remaining

Q: What about the “protection against scMET-induced seizures” value (Male Sprague-Dawley rats [11]) of the same compound?
A: giving protection against scMET-induced seizures

Q: What about the “effectiveness in conflict procedure” value (rhesus monkeys) of the same compound?
A: effective in rhesus monkeys

Q: And the “mechanical hyperalgesia in CFA-induced inflammatory pain” value (Sprague Dawley male rats)?
A: dose-dependently attenuated mechanical hyperalgesia

Q: And the “effect against scMET seizures at 30 mg/kg” value (Male Sprague-Dawley rats [3]; 30 mg/kg i.p.)?
A: little effect

Q: What about the “Human Liver microsome stability (reported in % remaining)” value [12] of the same compound?
A: 80 % remaining

Q: What about the “effect on seizure threshold to PTZ” value (Male Sprague-Dawley rats [4]) of the same compound?
A: little protection
